Assay results as given in the NIST ThermoML archive (doi:10.1021/je060271a).
Numbers after ± are expanded uncertainties.

Details: 283.15 K, Liquid, Vibrating tube method

CCCCCC(=O)OCC(COC(=O)CCCCC)(COC(=O)CCCCC)COC(=O)CCCCC [pentaerythritol tetrahexanoate]
Details	mass density [kg/m3]
25591 kPa	1018.3 ± 1.2
25610 kPa	1018.3 ± 1.2
25634 kPa	1018.4 ± 1.2
25653 kPa	1018.5 ± 1.2
25672 kPa	1018.4 ± 1.2
25696 kPa	1018.4 ± 1.2
25716 kPa	1018.4 ± 1.2
25738 kPa	1018.5 ± 1.2
25757 kPa	1018.5 ± 1.2
25774 kPa	1018.5 ± 1.2
25793 kPa	1018.4 ± 1.2
25815 kPa	1018.4 ± 1.2
25832 kPa	1018.4 ± 1.2
25851 kPa	1018.4 ± 1.2
25872 kPa	1018.5 ± 1.2
25890 kPa	1018.4 ± 1.2
25912 kPa	1018.6 ± 1.2
25930 kPa	1018.7 ± 1.2
25948 kPa	1018.5 ± 1.2
25966 kPa	1018.5 ± 1.2
25986 kPa	1018.5 ± 1.2
26002 kPa	1018.5 ± 1.2
26022 kPa	1018.6 ± 1.2
26039 kPa	1018.6 ± 1.2
26056 kPa	1018.6 ± 1.2
26075 kPa	1018.7 ± 1.2
26091 kPa	1018.6 ± 1.2
26108 kPa	1018.7 ± 1.2
26127 kPa	1018.6 ± 1.2
26143 kPa	1018.8 ± 1.2
26160 kPa	1018.6 ± 1.2
26180 kPa	1018.7 ± 1.2
26196 kPa	1018.6 ± 1.2
26213 kPa	1018.6 ± 1.2
26233 kPa	1018.7 ± 1.2
26249 kPa	1018.7 ± 1.2
26266 kPa	1018.8 ± 1.2
26287 kPa	1018.8 ± 1.2
26303 kPa	1018.7 ± 1.2
26320 kPa	1018.8 ± 1.2
26337 kPa	1018.8 ± 1.2
26357 kPa	1018.7 ± 1.2
26374 kPa	1018.7 ± 1.2
26394 kPa	1018.6 ± 1.2
26410 kPa	1018.8 ± 1.2
26428 kPa	1018.7 ± 1.2
26448 kPa	1018.9 ± 1.2
26465 kPa	1018.8 ± 1.2
26483 kPa	1018.7 ± 1.2
26500 kPa	1018.8 ± 1.2
26521 kPa	1018.9 ± 1.2
26538 kPa	1018.8 ± 1.2
26559 kPa	1018.9 ± 1.2
26576 kPa	1018.9 ± 1.2
26593 kPa	1018.8 ± 1.2
26609 kPa	1018.8 ± 1.2
26629 kPa	1018.9 ± 1.2
26645 kPa	1018.9 ± 1.2
26661 kPa	1019 ± 1.2
26680 kPa	1018.9 ± 1.2
26696 kPa	1018.9 ± 1.2
26713 kPa	1018.9 ± 1.2
26730 kPa	1018.9 ± 1.2
26746 kPa	1018.9 ± 1.2
26766 kPa	1019 ± 1.2
26782 kPa	1019 ± 1.2
26798 kPa	1019 ± 1.2
26818 kPa	1019 ± 1.2
26834 kPa	1019 ± 1.2
26850 kPa	1018.9 ± 1.2
26870 kPa	1019 ± 1.2
26886 kPa	1019 ± 1.2
26902 kPa	1019 ± 1.2
26957 kPa	1019.1 ± 1.2
26974 kPa	1019 ± 1.2
26993 kPa	1019.2 ± 1.2
27010 kPa	1019.1 ± 1.2
27026 kPa	1019 ± 1.2
27042 kPa	1019.2 ± 1.2
27063 kPa	1019.1 ± 1.2
27080 kPa	1019.2 ± 1.2
27097 kPa	1019.1 ± 1.2
27117 kPa	1019 ± 1.2
27134 kPa	1019.1 ± 1.2
27155 kPa	1019.2 ± 1.2
27172 kPa	1019.2 ± 1.2
27188 kPa	1019.2 ± 1.2
27204 kPa	1019.3 ± 1.2
27222 kPa	1019.2 ± 1.2
27238 kPa	1019.2 ± 1.2
27253 kPa	1019.2 ± 1.2
27272 kPa	1019.2 ± 1.2
27288 kPa	1019.3 ± 1.2
27306 kPa	1019.2 ± 1.2
27322 kPa	1019.4 ± 1.2
27338 kPa	1019.3 ± 1.2
27354 kPa	1019.3 ± 1.2
27373 kPa	1019.2 ± 1.2
27388 kPa	1019.2 ± 1.2
27404 kPa	1019.3 ± 1.2
27423 kPa	1019.3 ± 1.2
27439 kPa	1019.3 ± 1.2
27458 kPa	1019.4 ± 1.2
27474 kPa	1019.3 ± 1.2
27489 kPa	1019.4 ± 1.2
27505 kPa	1019.3 ± 1.2
27524 kPa	1019.4 ± 1.2
27540 kPa	1019.3 ± 1.2
27560 kPa	1019.3 ± 1.2
27576 kPa	1019.3 ± 1.2
27592 kPa	1019.4 ± 1.2
27611 kPa	1019.4 ± 1.2
27627 kPa	1019.3 ± 1.2
27644 kPa	1019.4 ± 1.2
27660 kPa	1019.5 ± 1.2
27679 kPa	1019.5 ± 1.2
27696 kPa	1019.4 ± 1.2
27712 kPa	1019.5 ± 1.2
27732 kPa	1019.4 ± 1.2
27748 kPa	1019.5 ± 1.2
27764 kPa	1019.6 ± 1.2
27784 kPa	1019.5 ± 1.2
27800 kPa	1019.4 ± 1.2
27817 kPa	1019.5 ± 1.2
27837 kPa	1019.5 ± 1.2
27853 kPa	1019.4 ± 1.2
27869 kPa	1019.5 ± 1.2
27889 kPa	1019.6 ± 1.2
27906 kPa	1019.6 ± 1.2
27922 kPa	1019.7 ± 1.2
27942 kPa	1019.6 ± 1.2
27959 kPa	1019.6 ± 1.2
27976 kPa	1019.5 ± 1.2
27996 kPa	1019.7 ± 1.2
28012 kPa	1019.5 ± 1.2
28029 kPa	1019.6 ± 1.2
28046 kPa	1019.7 ± 1.2
28066 kPa	1019.7 ± 1.2
28083 kPa	1019.7 ± 1.2
28100 kPa	1019.7 ± 1.2
28120 kPa	1019.6 ± 1.2
28136 kPa	1019.6 ± 1.2
28153 kPa	1019.7 ± 1.2
28170 kPa	1019.8 ± 1.2
28190 kPa	1019.8 ± 1.2
28207 kPa	1019.9 ± 1.2
28225 kPa	1019.7 ± 1.2
28245 kPa	1019.7 ± 1.2
28262 kPa	1019.7 ± 1.2
28280 kPa	1019.8 ± 1.2
28297 kPa	1019.7 ± 1.2
28314 kPa	1019.7 ± 1.2
28334 kPa	1019.8 ± 1.2
28351 kPa	1019.7 ± 1.2
28371 kPa	1019.8 ± 1.2
28388 kPa	1019.7 ± 1.2
28405 kPa	1019.9 ± 1.2
28422 kPa	1019.7 ± 1.2
28443 kPa	1019.8 ± 1.2
28460 kPa	1019.8 ± 1.2
28478 kPa	1019.8 ± 1.2
28500 kPa	1019.8 ± 1.2
28517 kPa	1019.8 ± 1.2
28535 kPa	1019.9 ± 1.2
28552 kPa	1019.9 ± 1.2
28570 kPa	1019.9 ± 1.2
28591 kPa	1019.9 ± 1.2
28608 kPa	1020 ± 1.2
28629 kPa	1019.9 ± 1.2
28646 kPa	1019.9 ± 1.2
28664 kPa	1019.9 ± 1.2
28686 kPa	1019.9 ± 1.2
28703 kPa	1020 ± 1.2
28722 kPa	1019.9 ± 1.2
28744 kPa	1019.9 ± 1.2
28763 kPa	1019.9 ± 1.2
28781 kPa	1019.9 ± 1.2
28800 kPa	1020 ± 1.2
28815 kPa	1020.1 ± 1.2
28830 kPa	1020.1 ± 1.2
28848 kPa	1020 ± 1.2
28863 kPa	1020 ± 1.2
28878 kPa	1020.2 ± 1.2
28896 kPa	1020 ± 1.2
28911 kPa	1020 ± 1.2
28926 kPa	1020 ± 1.2
28944 kPa	1020.1 ± 1.2
28958 kPa	1020.1 ± 1.2
28973 kPa	1020 ± 1.2
28990 kPa	1020.2 ± 1.2
29004 kPa	1020.2 ± 1.2
29018 kPa	1020.1 ± 1.2
29035 kPa	1020 ± 1.2
29050 kPa	1020.2 ± 1.2
29064 kPa	1020.1 ± 1.2
29081 kPa	1020.1 ± 1.2
29096 kPa	1020.3 ± 1.2
29110 kPa	1020.2 ± 1.2
29127 kPa	1020.2 ± 1.2
29142 kPa	1020.1 ± 1.3
29156 kPa	1020.1 ± 1.2
29171 kPa	1020.1 ± 1.2
29188 kPa	1020.2 ± 1.2
29202 kPa	1020.1 ± 1.2
29219 kPa	1020.3 ± 1.2
29234 kPa	1020.3 ± 1.2
29248 kPa	1020.3 ± 1.2
29263 kPa	1020.3 ± 1.2
29280 kPa	1020.2 ± 1.2
29295 kPa	1020.3 ± 1.2
29313 kPa	1020.3 ± 1.2
29327 kPa	1020.3 ± 1.2
29342 kPa	1020.3 ± 1.2
29357 kPa	1020.3 ± 1.2
29375 kPa	1020.3 ± 1.2
29389 kPa	1020.4 ± 1.2
29407 kPa	1020.3 ± 1.2
29422 kPa	1020.4 ± 1.2
29436 kPa	1020.2 ± 1.2
29451 kPa	1020.4 ± 1.2
29469 kPa	1020.3 ± 1.2
29484 kPa	1020.4 ± 1.2
29499 kPa	1020.3 ± 1.2
29516 kPa	1020.3 ± 1.2
29531 kPa	1020.5 ± 1.2
29547 kPa	1020.3 ± 1.2
29564 kPa	1020.4 ± 1.2
29579 kPa	1020.4 ± 1.2
29594 kPa	1020.4 ± 1.2
29609 kPa	1020.4 ± 1.2
29627 kPa	1020.4 ± 1.2
29642 kPa	1020.5 ± 1.2
29660 kPa	1020.5 ± 1.2
29675 kPa	1020.5 ± 1.2
29690 kPa	1020.6 ± 1.2
29708 kPa	1020.6 ± 1.2
29723 kPa	1020.4 ± 1.2
29738 kPa	1020.6 ± 1.2
29754 kPa	1020.5 ± 1.2
29770 kPa	1020.5 ± 1.2
29788 kPa	1020.5 ± 1.2
29803 kPa	1020.5 ± 1.2
29821 kPa	1020.5 ± 1.2
29837 kPa	1020.6 ± 1.2
29852 kPa	1020.6 ± 1.2
29867 kPa	1020.6 ± 1.2
29886 kPa	1020.6 ± 1.2
29901 kPa	1020.5 ± 1.2
29916 kPa	1020.5 ± 1.2
29935 kPa	1020.6 ± 1.2
29950 kPa	1020.6 ± 1.2
29967 kPa	1020.7 ± 1.2
29982 kPa	1020.5 ± 1.2
29998 kPa	1020.6 ± 1.2
30016 kPa	1020.5 ± 1.2
30032 kPa	1020.6 ± 1.2
30048 kPa	1020.6 ± 1.2
30066 kPa	1020.6 ± 1.2
30082 kPa	1020.6 ± 1.2
30097 kPa	1020.6 ± 1.2
30116 kPa	1020.6 ± 1.2
30131 kPa	1020.7 ± 1.2
30147 kPa	1020.7 ± 1.2
30163 kPa	1020.7 ± 1.2
30182 kPa	1020.7 ± 1.2
30198 kPa	1020.8 ± 1.2
30214 kPa	1020.7 ± 1.2
30232 kPa	1020.7 ± 1.2
30248 kPa	1020.8 ± 1.2
30264 kPa	1020.7 ± 1.2
30280 kPa	1020.7 ± 1.2
30298 kPa	1020.7 ± 1.2
30314 kPa	1020.9 ± 1.2
30330 kPa	1020.9 ± 1.2
30349 kPa	1020.8 ± 1.2
30364 kPa	1020.8 ± 1.2
30384 kPa	1020.9 ± 1.2
30400 kPa	1020.8 ± 1.2
30416 kPa	1020.9 ± 1.2
30431 kPa	1020.8 ± 1.2
30451 kPa	1020.8 ± 1.2
30466 kPa	1020.9 ± 1.2
30482 kPa	1020.9 ± 1.2
30502 kPa	1020.9 ± 1.2
30517 kPa	1020.9 ± 1.2
30536 kPa	1020.9 ± 1.2
30552 kPa	1020.9 ± 1.2
30568 kPa	1020.9 ± 1.2
30587 kPa	1021 ± 1.2
